This is an account of results in patent publication US12565505B2, “mTORC modulators and uses thereof” (Aeovian Pharmaceuticals, Inc., priority 2019, dated 2026).

One assay concerns the target T1, mTORC1 (Homo sapiens, UniProt P42345+P62942).
T1 construct: endogenous in cells; host or cells: PC3 cells (human prostate adenocarcinoma)
Description: Inhibition assay for mTORC1: phosphorylation of pS6K at Thr389, AlphaLISA SureFire in PC3 cells. Format: cell-based. The following applies: PC3 cells, 24 hours treatment, pS6K Thr389; analogs substituted at C40 and C16 (C16 diastereomer mixtures not isolated); read-out: pIC50 mTORC1 (converted). The procedure, abridged: (§1)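 Human prostate adenocarcinoma PC3 cells treated with compounds for 24 h. AlphaLISA SureFire read-out of pS6K Thr389 for mTORC1 and pAkt Ser473 for mTORC2, from which IC50s were derived.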
Background: In Alpha technology, singlet oxygen from a donor bead excites a nearby acceptor bead.

The target in the next assay is T2, mTORC2 (Homo sapiens, UniProt P42345+P62942).
T2 construct: endogenous in cells; host or cells: PC3 cells (human prostate adenocarcinoma)
As to the kind of experiment: Inhibition assay for mTORC2: phosphorylation of pAkt at Ser473, AlphaLISA SureFire in PC3 cells. Format: cell-based. The following applies: PC3 cells, 24 hours treatment, analogs substituted at C40 and C16 (C16 diastereomer mixtures not isolated), read-out: pIC50 mTORC2 (converted). The procedure, abridged:
as §1

Where only a bound is given, the exact number is not on record here.

For `CO[C@@H]1C[C@H](C[C@@H](C)[C@@H]2CC(=O)[C@H](C)/C=C(\C)[C@@H](O)[C@@H](OC)C(=O)[C@H](C)C[C@H](C)/C=C/C=C/C=C(\C)C(OCCO)C[C@@H]3CC[C@@H](C)[C@@](O)(O3)C(=O)C(=O)N3CCCCC3C(=O)O2)CC[C@H]1OC(=O)N(C)CCN1CCOCC1` (stereo partly drawn) [Compound 41, [(1R,2R,4S)-4-[(2R)-2-[(1R,9S,12S,15R,16E,18R,19R,21R,23S,24E,26E,28E,32S,35R)-1,18-dihydroxy-30-(2-hydroxyethoxy)-19-methoxy-15,17,21,23,29,35-hexamethyl-2,3,10,14,20-pentaoxo-11,36-dioxa-4-azatricyclo[30.3.1.0^4,9]hexatriaconta-16,24,26,28-tetraen-12-yl]propyl]-2-methoxy-cyclohexyl] N-methyl-N-(2-morpholinoethyl)carbamate], the IC50 was below 0.316 nM on mTORC1 and 1 to 10 µM on mTORC2.

For the compound `CO[C@@H]1C[C@H](C[C@@H](C)[C@@H]2CC(=O)[C@H](C)/C=C(\C)[C@@H](O)[C@@H](OC)C(=O)[C@H](C)C[C@H](C)/C=C/C=C/C=C(\C)C(OC[C@@H](O)c3ccccc3)C[C@@H]3CC[C@@H](C)[C@@](O)(O3)C(=O)C(=O)N3CCCCC3C(=O)O2)CC[C@H]1OCCCO` (stereo partly shown) [Compound 90], the IC50 on mTORC1 is below 0.316 nM; on mTORC2, 1 to 10 µM.

On to `CO[C@@H]1C[C@H](C[C@@H](C)[C@@H]2CC(=O)[C@H](C)/C=C(\C)[C@@H](O)[C@@H](OC)C(=O)[C@H](C)C[C@H](C)/C=C/C=C/C=C(\C)C(OCCc3ccccc3)C[C@@H]3CC[C@@H](C)[C@@](O)(O3)C(=O)C(=O)N3CCCCC3C(=O)O2)CC[C@H]1OCCCO` (stereo partly drawn) [Compound 94, (1R,9S,12SR,15R,16E,18R,19R,21R,23S,24E,26E,28E,32S,35R)-1,18-dihydroxy-12-[(1R)-2-[(1S,3R,4R)-4-(3-hydroxypropoxy)-3-methoxy-cyclohexyl]-1-methyl-ethyl]-19-methoxy-15,17,21,23,29,35-hexamethyl-30-(2-phenylethoxy)-11,36-dioxa-4-azatricyclo[30.3.1.0^4,9]hexatriaconta-16,24,26,28-tetraene-2,3,10,14,20-pentone], for which the IC50 on mTORC1 was below 0.316 nM; on mTORC2, 1 to 10 µM.

`COCCCOC1C[C@@H]2CC[C@@H](C)[C@@](O)(O2)C(=O)C(=O)N2CCCCC2C(=O)O[C@H]([C@H](C)C[C@@H]2CC[C@@H](OCCO)[C@H](OC)C2)CC(=O)[C@H](C)/C=C(\C)[C@@H](O)[C@@H](OC)C(=O)[C@H](C)C[C@H](C)/C=C/C=C/C=C/1C` (stereo partly shown) [Compound 31]: the IC50 on mTORC1 is below 0.316 nM; at mTORC2, 1 to 10 µM.

Consider `COCCOC1C[C@@H]2CC[C@@H](C)[C@@](O)(O2)C(=O)C(=O)N2CCCCC2C(=O)O[C@H]([C@H](C)C[C@@H]2CC[C@@H](OCCOC)[C@H](OC)C2)CC(=O)[C@H](C)/C=C(\C)[C@@H](O)[C@@H](OC)C(=O)[C@H](C)C[C@H](C)/C=C/C=C/C=C/1C` (stereo partly shown) [Compound 29], for which the IC50 was below 0.316 nM at mTORC1 and above 10 µM on mTORC2.

Consider `CO[C@@H]1C[C@H](C[C@@H](C)[C@@H]2CC(=O)[C@H](C)/C=C(\C)[C@@H](O)[C@@H](OC)C(=O)[C@H](C)C[C@H](C)/C=C/C=C/C=C(\C)C(OCCO)C[C@@H]3CC[C@@H](C)[C@@](O)(O3)C(=O)C(=O)N3CCCCC3C(=O)O2)CC[C@H]1OCCO` (stereo partly shown) [Compound 9], for which the results for the IC50 on mTORC1 and on mTORC2 were below 0.316 nM and above 10 µM, respectively.

With `CO[C@@H]1C[C@H](C[C@@H](C)[C@@H]2CC(=O)[C@H](C)/C=C(\C)[C@@H](O)[C@@H](OC)C(=O)[C@H](C)C[C@H](C)/C=C/C=C/C=C(\C)C(OCCO)C[C@@H]3CC[C@@H](C)[C@@](O)(O3)C(=O)C(=O)N3CCCCC3C(=O)O2)CC[C@H]1OC(=O)NCCN1CCCCC1` (stereo partly shown) [Compound 72], the IC50 was 0.316 to 3.16 nM at mTORC1 and above 10 µM at mTORC2.

On to `CO[C@@H]1C[C@H](C[C@@H](C)[C@@H]2CC(=O)[C@H](C)/C=C(\C)[C@@H](O)[C@@H](OC)C(=O)[C@H](C)C[C@H](C)/C=C/C=C/C=C(\C)C(OCCc3ccccc3)C[C@@H]3CC[C@@H](C)[C@@](O)(O3)C(=O)C(=O)N3CCCCC3C(=O)O2)CC[C@H]1OC(=O)NCCc1c[nH]cn1` (stereo partly shown) [Compound 110], for which the IC50 was below 0.316 nM at mTORC1 and below 1 µM on mTORC2.
